Assays:
PRMT5 [1] = target: T1, PRMT5 (Homo sapiens, UniProt O14744); assay: PRMT5 IC50 assay in the presence of MTA as cofactor; assay type: biochemical; settings: for IC50: PRMT5, MTA as cofactor
T1 construct: purchased Viva (custom protein)
In short: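 Ki conversion: SAM arm, Ki=IC50/1.5; MTA arm, Ki=IC50/13.5. No-cofactor arm reported as IC50 only. Selectivity expressed as Ki(SAM)/Ki(MTA).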

PRMT5 [2] = target: T1, PRMT5; assay: PRMT5 IC50 assay in the presence of SAM as cofactor; assay type: biochemical
In short: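 Cofactor-free, SAM and MTA formats; IC50 μM; Ki = IC50/1.5 for SAM, IC50/13.5 for MTA.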

PRMT5 [3] = target: T1, PRMT5; assay: PRMT5 IC50 assay with no cofactor; assay type: biochemical
In short: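 Results given as IC50 (μM), from which Ki follows by dividing by 1.5 in the SAM condition or by 13.5 in the MTA condition. The ratio of SAM Ki to MTA Ki indicates MTA-cooperative preference.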

HAP1 MTAP-intact = assay: SDMA in-cell western assay, HAP1 MTAP-intact cell line; assay type: cell-based; settings: Homo sapiens
Source text: Table 1a also indicates IC50 values in an MTAP-isogenic cell line pair for exemplary compounds in an SDMA in-cell western assay (columns 7-8). HAP1 MTAP-intact is a cell line in which endogenous levels of MTAP are expressed, and HAP1 MTAP-deleted is an MTAP-null cell line. […] Compounds with a ratio in the SDMA in-cell western assay of equal to or greater than 3 fold are considered MTAP-selective.

HAP1 MTAP-deleted = assay: SDMA in-cell western assay, HAP1 MTAP-deleted cell line; assay type: cell-based; settings: for IC50: Homo sapiens, HAP1 MTAP-deleted cell line; for MTAP Intact/Deleted Ratio: IC50 ratio HAP1 MTAP-intact / HAP1 MTAP-deleted
Source text: Table 1a also indicates IC50 values in an MTAP-isogenic cell line pair for exemplary compounds in an SDMA in-cell western assay (columns 7-8). HAP1 MTAP-intact is a cell line in which endogenous levels of MTAP are expressed, and HAP1 MTAP-deleted is an MTAP-null cell line.

[4] = ratio between Ki in the presence of SAM and Ki in the presence of MTA

T1 sequence (O14744 whole entry): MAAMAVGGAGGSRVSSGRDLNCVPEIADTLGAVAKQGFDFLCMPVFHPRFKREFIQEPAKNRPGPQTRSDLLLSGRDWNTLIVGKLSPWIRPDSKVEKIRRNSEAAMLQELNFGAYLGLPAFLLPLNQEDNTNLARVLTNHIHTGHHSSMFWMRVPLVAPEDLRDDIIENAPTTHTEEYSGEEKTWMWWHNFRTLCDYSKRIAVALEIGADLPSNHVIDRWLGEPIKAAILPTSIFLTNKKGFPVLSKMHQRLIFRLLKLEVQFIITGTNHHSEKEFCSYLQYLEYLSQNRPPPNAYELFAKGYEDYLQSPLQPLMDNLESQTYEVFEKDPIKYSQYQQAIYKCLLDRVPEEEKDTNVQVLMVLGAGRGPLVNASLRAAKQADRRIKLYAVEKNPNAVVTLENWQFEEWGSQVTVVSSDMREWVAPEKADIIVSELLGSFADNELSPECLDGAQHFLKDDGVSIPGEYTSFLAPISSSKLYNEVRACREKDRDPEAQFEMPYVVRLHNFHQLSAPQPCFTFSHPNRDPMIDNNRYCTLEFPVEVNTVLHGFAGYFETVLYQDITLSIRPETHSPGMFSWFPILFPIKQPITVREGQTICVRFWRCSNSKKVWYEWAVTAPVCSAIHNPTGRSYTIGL
T1 sequence (Q9BQA1 whole entry partner): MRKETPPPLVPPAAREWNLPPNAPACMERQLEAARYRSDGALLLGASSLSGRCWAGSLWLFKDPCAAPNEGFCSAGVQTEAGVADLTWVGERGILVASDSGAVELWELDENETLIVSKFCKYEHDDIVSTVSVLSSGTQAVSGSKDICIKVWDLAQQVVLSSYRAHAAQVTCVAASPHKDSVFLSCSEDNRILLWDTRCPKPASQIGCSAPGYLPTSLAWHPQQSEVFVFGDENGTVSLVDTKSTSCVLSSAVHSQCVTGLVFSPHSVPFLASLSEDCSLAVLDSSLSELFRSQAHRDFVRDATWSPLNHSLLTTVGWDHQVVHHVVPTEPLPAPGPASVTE

| Compound | IC50 (PRMT5 [1]) [nM] | SAM/MTA Ratio (PRMT5 [1]; [4]) | IC50 (PRMT5 [2]) [nM] | IC50 (PRMT5 [3]; read-out: No Co-factor IC50) [nM] | IC50 (HAP1 MTAP-intact) [nM] | IC50 (HAP1 MTAP-deleted) [nM] | MTAP Intact/Deleted Ratio (HAP1 MTAP-deleted) | SAM/MTA Ratio (PRMT5 [1]; ratio between the Ki in the presence of SAM and the Ki in the presence of MTA) | IC50 (PRMT5 [3]) [nM] |
| --- | --- | --- | --- | --- | --- | --- | --- | --- | --- |
| COCCN(C)c1nc(NC2COC2)cc(C(=O)NC[C@H](O)CN2CCc3cc(OCc4ocnc4C)ccc3C2)n1 [Compound 408, N-[(2S)-2-hydroxy-3-{6-[(4-methyl-1,3-oxazol-5-yl)methoxy]-1,2,3,4-tetrahydroisoquinolin-2-yl}propyl]-2-[(2-methoxyethyl)(methyl)amino]-6-[(oxetan-3-yl)amino]pyrimidine-4-carboxamide] | 50 to 500 | A (a Ki ratio greater than or equal to 10 fold between the Ki in the presence of SAM and the Ki in the presence of MTA) | 50 to 500 | 500 to 5000 | < 1000 | < 1000 | C* (an IC50 ratio of less than 3 fold between the IC50 in the HAP1 MTAP-intact cell line and the HAP1 MTAP-deleted cell line) | – | – |
| CC(=O)N1CCC(Nc2cc(C(=O)NC[C@H](O)CN3CCc4cc(OCc5ocnc5C)c(F)cc4C3)cc(N3CCCCC3)n2)CC1 [Compound 623] | 50 to 500 | – | 50 to 500 | – | 1000 to 10000 | < 1000 | A* (an IC50 ratio greater than or equal to 10 fold between the IC50 in the HAP1 MTAP-intact cell line and the HAP1 MTAP-deleted cell line) | A (a Ki ratio greater than or equal to 10 fold between the Ki in the presence of SAM and the Ki in the presence of MTA) | 50 to 500 |
| O=C(NC[C@H](O)CN1CCc2c(ccc(OCc3cnco3)c2Cl)C1)c1cc(NC2CCCC2)ncn1 [Compound 336, (S)—N-(3-(5-chloro-6-(oxazol-5-ylmethoxy)-3,4-dihydroisoquinolin-2(1H)-yl)-2-hydroxypropyl)-6-(cyclopentylamino)pyrimidine-4-carboxamide] | 500 to 5000 | A (a Ki ratio greater than or equal to 10 fold between the Ki in the presence of SAM and the Ki in the presence of MTA) | 500 to 5000 | ≥ 5000 | ≥ 10000 | ≥ 10000 | C* (an IC50 ratio of less than 3 fold between the IC50 in the HAP1 MTAP-intact cell line and the HAP1 MTAP-deleted cell line) | – | – |
| CC(=O)N1CCC(Nc2cc(C(=O)NC[C@H](O)CN3CCc4cc(OCc5ocnc5C)ccc4C3)nc(N3CCCCC3)n2)CC1 [Compound 647] | < 50 | A (a Ki ratio greater than or equal to 10 fold between the Ki in the presence of SAM and the Ki in the presence of MTA) | 50 to 500 | 50 to 500 | < 1000 | < 1000 | B* (an IC50 ratio greater than or equal to 3 fold but lower than 10 fold between the IC50 in the HAP1 MTAP-intact cell line and the HAP1 MTAP-deleted cell line) | – | – |
| CC(=O)N1CC(Nc2cc(C(=O)NC[C@H](O)CN3CCc4cc(OCc5cnco5)ccc4C3)nc(C(C)C)n2)C1 [Compound 349, (S)-6-((1-acetylazetidin-3-yl)amino)-N-(2-hydroxy-3-(6-(oxazol-5-ylmethoxy)-3,4-dihydroisoquinolin-2(1H)-yl)propyl)-2-isopropylpyrimidine-4-carboxamide] | 50 to 500 | A (a Ki ratio greater than or equal to 10 fold between the Ki in the presence of SAM and the Ki in the presence of MTA) | 50 to 500 | 500 to 5000 | < 1000 | < 1000 | C* (an IC50 ratio of less than 3 fold between the IC50 in the HAP1 MTAP-intact cell line and the HAP1 MTAP-deleted cell line) | – | – |
| O=C(NC[C@H](O)CN1CCc2cc(OCc3cnco3)ccc2C1)c1cc(NC2CCC2)nc(N2CCCCC2)c1 [Compound 320, (S)-2-(cyclobutylamino)-N-(2-hydroxy-3-(6-(oxazol-5-ylmethoxy)-3,4-dihydroisoquinolin-2(1H)-yl)propyl)-6-(piperidin-1-yl)isonicotinamide] | 500 to 5000 | – | 500 to 5000 | 500 to 5000 | 1000 to 10000 | 1000 to 10000 | C* (an IC50 ratio of less than 3 fold between the IC50 in the HAP1 MTAP-intact cell line and the HAP1 MTAP-deleted cell line) | – | – |

— patent US11986471B2, “Compounds and methods of use” (Tango Therapeutics, Inc., priority 2018, dated 2024)
